Source: patent publication US10017712B2, “Method for producing vitamin E-enriched, especially tocotrienol-enriched, compositions from natural oils” (Evonik Degussa GmbH, priority 2014, dated 2018)

Assays:
[1] = Single stage methanol extraction of vegetable oils, partition coefficient; format: physicochemical
Method: First methanol was tested for its efficiency in extracting of α-tocopherol and FFA from three vegetable oils. 200-300 ml of oil was mixed with the solvent using a magnetic stirrer at 35° C. The mixture is gravity separated and the oil stayed at the bottom. Partition coefficients of α-tocopherol and FFA were obtained by measuring the concentration of both compounds in the extract and the bottom fraction without evaporation of the solvent. The partition coefficient is calculated as follows: PC=(concentration in the extract)/(concentration in the bottom fraction).

[2] = Partition coefficients of individual tocopherols and tocotrienols, palm oil with ethanol or methanol; format: physicochemical
Method: Table 3 provides values of the individual partition coefficient values of tocopherol and tocotrienol compounds found in palm oil. The values were measured by contacting palm oil and ethanol (denoted PC Eth in Table 3) and palm oil and methanol (denoted PC Meth in Table 3) at the oil to solvent ratios noted in the table—e.g. PC Eth 1:5 means that one volume of palm oil was contacted with 5 volumes of ethanol.

[3] = PC Meth 1:1 (palm oil:methanol)
[4] = PC Meth 1:2 (palm oil:methanol)
[5] = PC Meth 1:3 (palm oil:methanol)
[6] = PC Meth 1:5 (palm oil:methanol)
[7] = PC Meth 1:7 (palm oil:methanol)

| Structure (SMILES) | Partition coefficient ([1]; Palm Oil, Solvent:Oil Ratio 2:1, 35° C.) | Partition coefficient ([1]; Rapeseed Oil, Solvent:Oil Ratio 3:1, 35° C.) | Partition coefficient ([1]; Rice Bran Oil, Solvent:Oil Ratio 2:1, 35° C.) | Partition coefficient ([2]; PC Eth 1:1 (palm oil:ethanol)) | Partition coefficient ([2]; PC Eth 1:2 (palm oil:ethanol)) | Partition coefficient ([2]; PC Eth 1:3 (palm oil:ethanol)) | Partition coefficient ([2]; PC Eth 1:5 (palm oil:ethanol)) | Partition coefficient ([2]; PC Eth 1:7 (palm oil:ethanol)) | Partition coefficient [2, 3] | Partition coefficient [2, 4] | Partition coefficient [2, 5] | Partition coefficient [2, 6] | Partition coefficient [2, 7] |
| --- | --- | --- | --- | --- | --- | --- | --- | --- | --- | --- | --- | --- | --- |
| Cc1c(C)c2c(c(C)c1O)CC[C@@](C)(CCC[C@H](C)CCC[C@H](C)CCCC(C)C)O2 [α-tocopherol] | 0.15 | 0.39 | 0.20 | 0.30 | 0.31 | 0.25 | 0.42 | 0.22 | 0.21 | 0.15 | 0.21 | 0.11 | 0.09 |
| CC(C)=CCC/C(C)=C/CC/C(C)=C/CC[C@]1(C)CCc2cc(O)c(C)c(C)c2O1 [Gamma-tocotrienol] |  |  |  | 0.72 | 0.81 | 0.85 | 0.79 | 0.53 | 1.17 | 0.64 | 0.76 | 0.46 | 0.36 |
| Cc1cc(O)cc2c1O[C@](C)(CCC[C@H](C)CCC[C@H](C)CCCC(C)C)CC2 [Delta-tocopherol] |  |  |  | 0.50 | 0.47 |  | 0.53 | 0.29 | 0.25 | 0.07 |  | 0.09 | 0.01 |
